Results reported in US20220362405A1, “COMPOSITIONS AND METHODS FOR TREATING LIVER DISEASE” (UNIVERSITY OF PITTSBURGH-OF THE COMMONWEALTH SYSTEM OF …, priority 2019, published 2022).

Test system: AKT
Experiment: AKT inhibition in normal human hepatocytes (western blot)
Format: cell-based
Conditions: 5 μM MK-2206, 24 hours, freshly isolated normal human hepatocytes, preliminary experiments
Description: Protein extraction and Western blotting. To perform the protein expression analysis, the isolated hepatocytes were divided in two fractions; one fraction was used for total protein extraction, according to standard procedures previously described (Bell A W et al., 2006) and the other fraction was used for nuclear protein isolation. For nuclear protein isolation, between 1×10^7 and 5×10^7 isolated hepatocytes per patient were washed and harvested in 40 mmol/L Tris (pH 7.6), 14 mmol/L NaCl, and 1 mmol/L EDTA, then centrifuged (5 min, 100g). Cell pellets were suspended in 2 mL of hypotonic buffer [10 mmol/L HEPES (pH 7.9), 10 mmol/L NaH2PO4, 1.5 mmol/L MgCl2, 1 mmol/L DTT, 0.5 mmol/L spermidine, and […] with protease and phosphatase inhibitor cocktails (Sigma, St. Louis, Mo.)]. Following 10 minutes of incubation on ice, samples were homogenized in a Dounce homogenizer and then centrifuged (5 min, 800 g). Cell lysis was monitored with trypan blue stain. Supernatants were saved as cytoplasmic extracts. The nuclei pellets were washed two additional times in the same buffer.
Nuclear proteins were extracted in 50-100 μL of hypertonic buffer [30 mmol/L HEPES (pH 7.9), 25% glycerol, 450 mmol/L NaCl, 12 mmol/L MgCl2, 1 mmol/L DTT, and 0.1 mmol/L EDTA with protease and phosphatase inhibitor cocktails (Sigma, St. Louis, Mo.)] for 45 minutes at 4° C. with continuous agitation. Extracts were centrifuged at 30,000 g, and the supernatants were collected and dialyzed for 2 hours against the same solution but containing 150 mmol/L NaCl. Protein concentration was determined by the Bicinchoninic Acid assay (Sigma, St. Louis, Mo.).
Western blot analysis performed according to standard procedures (Natarajan A et al., 2007). The intensity of each protein band was quantitated using National Institutes of Health Image J software. The primary antibodies and its dilutions are listed in the above shown Table 2.
AKT Inhibition in Normal Human Hepatocytes. Normal human hepatocytes (1 million cells/well) were cultured on collagen-coated wells. […]

Question: How did the “acetylated nuclear HNF4α expression reduced compared with nontreated controls” value turn out when NC1(c2ccc(-c3nc4ccn5c(=O)[nH]nc5c4cc3-c3ccccc3)cc2)CCC1 [MK-2206] was run?
Answer: The value was 14%.

Question: What about the “activated AKT(Thr308) expression reduced compared with nontreated controls” value of the same compound?
Answer: The value was 80%.

Question: What about the “nuclear HNF4α expression reduced compared with nontreated controls” value of the same compound?
Answer: Its value is 25%.
